Where two headings read alike, the source gives them in different places.
Legend:
[1] = tested on: avian CoV-IBV; assay: microbe, parasite or virus in culture; assay type: cell-based; conditions: for Virucidal Activity Inhibition (%): 2 h incubation with virus at 37 °C, qRT-PCR
[2] = tested on: avian CoV-IBV; assay type: cell-based; conditions: IBV titration in infected Vero cells, qRT-PCR, 3 days post-infection
[3] = MTT cytotoxicity assay on uninfected Vero cells; assay type: cell-based; conditions: African green monkey, uninfected Vero cells (CCL-81), 3 days at 37 °C, read-out: CC50 (half-maximum cytotoxic concentration)
Procedure: Vero cells (CCL-81, American Type Culture Collection, Boston, MA, USA), used as a cellular model for antiviral bioassay, were cultured in Dulbecco’s modified Eagle’s medium (DMEM), supplemented with 10% fetal bovine serum (FBS) and gentamycin, and incubated at 37 °C with 5% CO2. They were used to adapt the avian Massachusetts serotype CoV-IBV strain.
Cell viability was evaluated using the MTT (3-(4,5-dimethylthiazol-2-yl)-2,5-diphe- nyltetrazolium bromide) method. The MTT assay is sensitive and reliable for cellular metabolic activity. It is based on the ability of nicotinamide adenine dinucleotide phosphate (NADPH)-dependent cellular oxidoreductase enzyme to reduce the tetrazolium dye to the purple formazan crystals. Sub-confluent Vero cells, seeded in 96-well microplates (2 × 10^6 cells/microplate; Thermo Fisher Scientific), were incubated with serial dilutions of synthesized molecules, in duplicates for 3 days at 37 °C. MTT solution (500 μg/mL) was then added, and the cells were incubated for further 4 h. The formed formazan crystals within metabolically viable cells were then dissolved in 100 µL of DMSO, and the absorption, proportional to viable cell number, was measured at 490 nm with a Thermo Scientific Multiskan FC. The results were expressed as a percentage of viable cells relative to the negative control (untreated cells cultured in standard medium and considered 100% viable). The half-maximum cytotoxic concentration (CC50), which was defined as the concentration which reduced the OD490 of the 1,3,4-oxadiazole-derived α-aminophosphonates/α-aminophosphonic acids-treated cells to 50% of that of untreated cells, were determined from the plotted curve of percentages of viable cells against compound concentrations.

[4] = tested on: IBV Beaudette strain; design: method as in PMID 17479370; conditions: 5 to 50 mM; cited from earlier work
[5] = tested on: IBV; design: method as in PMID 17479370; conditions: dose-dependent, without virucidal effect; cited from earlier work
[6] = Avian coronavirus, 2 h, read-out: Virucidal Activity Inhibition (%)

Row | SMILES | inhibition at 33 µM [1, 6] [%] | Antiviral Activity ([2]; 33 µM) | CC50 at 3 days [3] [µM] | inhibition at 3.66 µM [1, 6] [%] | Antiviral Activity ([2]; 3.66 µM) | other results
1 | O=P(O)(O)C(Nc1nnc(-c2ccccc2)o1)c1cc(C(F)(F)F)cc(C(F)(F)F)c1 (stereo not shown) [6e, [(5-Phenyl-1,3,4-oxadiazol-2-ylamino)(3,5-bis-trifuoromethyl-phenyl)methyl] phosphonic acid] | 22.7 ± 3.25 | Not active | ~550 |  |  | 
2 | [Cl-].[Li+] [LiCl, lithium chloride] |  |  |  |  |  | virucidal activity (virus titre after incubation) [4]: did not modify the title of the virus; replication of IBV in Vero cells [5]: suppress the replication of IBV in Vero cells in a dose-dependent manner
3 | O=P(O)(O)C(Nc1nnc(-c2ccccc2)o1)c1ccc(F)cc1 (stereo not shown) [6c, [(5-Phenyl-1,3,4-oxadiazol-2-ylamino)(4-fluorophenyl)methyl]phosphonic acid] | 59.6 ± 1.34 | Not active |  |  |  | 
4 | O=[N+]([O-])c1ccc(C(Nc2nnc(-c3ccccc3)o2)P(=O)(O)O)cc1 (stereo not shown) [6b, [(5-Phenyl-1,3,4-oxadiazol-2-ylamino)(4-nitrophenyl)methyl]phosphonic acid] |  |  | ~550 | 31.4 ± 2.4 | Not active | 
5 | CCOP(=O)(OCC)C(Nc1nnc(-c2ccccc2)o1)c1ccc(OC(F)(F)F)cc1 (stereo not shown) [5f, diethyl[(5-phenyl-1,3,4-oxadiazol-2-ylamino)(4-trifluoromethoxyphenyl)methyl]phosphonate] | 86.1 ± 1.58 | Not active |  |  |  | Virucidal Activity Inhibition (%) ([1]; 33 µM): strongly inhibited the IBV infectivity; melting point: 106.6 to 107.5 °C
6 | O=P(O)(O)C(Nc1nnc(-c2ccccc2)o1)c1ccc(C(F)(F)F)cc1 (stereo not shown) [6a, [(5-phenyl-1,3,4-oxadiazol-2-ylamino)(4-trifluoromethylphenyl)methyl] phosphonic acid] |  |  | ~550 |  |  | Virucidal Activity Inhibition (%) ([1]; 1.23 µM): strongly inhibited the IBV infectivity; inhibition at 1.23 µM [1, 6]: 75 ± 0.75%; Antiviral Activity ([2]; 1.23 µM): Not active; melting point: > 260 °C
7 | O=P(O)(O)C(Nc1nnc(-c2ccccc2)o1)c1cc(F)c(F)c(F)c1 (stereo not shown) [6d, [(5-Phenyl-1,3,4-oxadiazol-2-ylamino)(3,4,5-trifluophenyl)methyl]phosphonic acid] |  |  | ~550 | 25 ± 1.15 | Not active | 
8 | CCOP(=O)(OCC)C(Nc1nnc(-c2ccccc2)o1)c1ccc(F)cc1 (stereo not shown) [5c, diethyl[(5-phenyl-1,3,4-oxadiazol-2-ylamino)(4-fluorophenyl)methyl]phosphonate] |  |  | ~550 | 46 ± 1.49 | Not active | 
9 | CCOP(=O)(OCC)C(Nc1nnc(-c2ccccc2)o1)c1ccc([N+](=O)[O-])cc1 (stereo not shown) [5b, diethyl[(5-phenyl-1,3,4-oxadiazol-2-ylamino) (4-nitrophenyl)methyl]phosphonate] | 35 ± 0.53 | Not active | 1599 ± 4.73 |  |  | 
